Experimental data published in US20230233650A1, “NOVEL FATTY ACID MODIFIED UROCORTIN 2 DERIVATIVES AND THE USES THEREOF” (Novo Nordisk A/S, priority 2021, published 2023).
Read-outs that look alike come from different tables or passages of the source. Numbered stars: 1 amine (or outer) side, 2 acyl side, 3 side chain; on linkers, the order of the positions; unused ones are H or OH. Side chains are listed from the residue outwards. Ends that are not written are not given here. Peptide text beside a SMILES is read from it. * marks the point of attachment. C20 diacid = O=C(O)CCCCCCCCCCCCCCCCCCC(=O)*; γGlu = O=C(O)[C@H](CCC(=O)[*:2])N[*:1]; AEEA = NCCOCCOCC(=O)O

How the values were obtained:
Human CRF2 receptor = target: T1, Human CRF2 receptor (Homo sapiens, UniProt Q13324); test: CRF2 receptor binding, scintillation proximity assay (SPA); settings: displacement of [125I]-Sauvagine, CHO-K1 cell membranes
T1 construct: host or cells: CHO-K1 (membrane preparation)
T1 sequence (Q13324 1-411): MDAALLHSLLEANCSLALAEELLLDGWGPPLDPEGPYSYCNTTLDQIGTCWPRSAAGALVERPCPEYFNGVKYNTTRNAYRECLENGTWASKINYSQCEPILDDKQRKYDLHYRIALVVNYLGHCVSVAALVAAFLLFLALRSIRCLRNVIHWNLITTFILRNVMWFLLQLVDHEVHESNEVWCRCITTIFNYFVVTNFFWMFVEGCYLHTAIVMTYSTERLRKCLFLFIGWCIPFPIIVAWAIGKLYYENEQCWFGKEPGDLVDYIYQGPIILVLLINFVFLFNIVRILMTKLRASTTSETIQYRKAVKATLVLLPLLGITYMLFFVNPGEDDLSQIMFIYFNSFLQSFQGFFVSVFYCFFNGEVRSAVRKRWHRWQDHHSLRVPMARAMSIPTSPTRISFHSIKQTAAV
Method: (§1) The purpose of this example was to test the in vitro binding of the compounds of the invention to receptor subtypes CRF1 and CRF2. The in vitro binding of the compounds was determined in a scintillation proximity assay (SPA) as described below. The native, human Ucn1 and Ucn2 peptides are included as references. Scintillation Proximity Assay: […] Both cell lines were cultured at 37° C. in a humidified atmosphere with 5% CO2. […] Membranes were prepared by the following protocol: cultured cells were washed twice with cold Dulbecco’s phosphate buffered saline and detached using TrypLE™ (ThermoFisher) and transferred to tubes and centrifuged for 5 minutes at 1000 g at +4° C. Pellets were resuspended in ice cold homogenization buffer (20 mM Hepes pH 7.1, 5 mM MgCl2, 1 mg/ml Bacitracin with 2 complete EDTA-free protease inhibitor cocktail tablets/50 ml (Roche)) and then homogenized for 30 seconds using a Ultra-Turrax T25 tissue homogenizer (IKA) at medium speed. The homogenate was centrifuged at 35,000 g for 15 minutes at +4° C. using an ultracentrifuge, and the supernatant was discarded, and fresh homogenization buffer was added. Homogenization of the pellet was repeated a total of three times. The final pellet was resuspended in a few millilitres of homogenization buffer and protein concentration was determined using the Bradford method. The membrane preparation was transferred to cryotubes, and the aliquots were stored at -80° C. Each membrane preparation was subsequently titrated to give an appropriate window in the assay. Test procedure: […] Plates were sealed and incubated at 25° C. for 2 hours in a plate shaker set at 400 rpm and thereafter centrifuged at 1500 rpm for 10 minutes. SPA plates were let to stand at room temperature for about 16 hours prior to reading on microplate scintillation counter. Displacement of radioligand was measured as reduction in luminescence, and IC50 values were calculated by nonlinear regression analysis of four parameter sigmoidal dose-response curves.

Human CRF1 receptor = target: T2, Human CRF1 receptor (Homo sapiens, UniProt P34998); test: CRF1 receptor binding, scintillation proximity assay (SPA); settings: displacement of [125I]-Sauvagine, CHO-K1 cell membranes
T2 construct: host or cells: CHO-K1 (membrane preparation)
T2 sequence (P34998 24-415): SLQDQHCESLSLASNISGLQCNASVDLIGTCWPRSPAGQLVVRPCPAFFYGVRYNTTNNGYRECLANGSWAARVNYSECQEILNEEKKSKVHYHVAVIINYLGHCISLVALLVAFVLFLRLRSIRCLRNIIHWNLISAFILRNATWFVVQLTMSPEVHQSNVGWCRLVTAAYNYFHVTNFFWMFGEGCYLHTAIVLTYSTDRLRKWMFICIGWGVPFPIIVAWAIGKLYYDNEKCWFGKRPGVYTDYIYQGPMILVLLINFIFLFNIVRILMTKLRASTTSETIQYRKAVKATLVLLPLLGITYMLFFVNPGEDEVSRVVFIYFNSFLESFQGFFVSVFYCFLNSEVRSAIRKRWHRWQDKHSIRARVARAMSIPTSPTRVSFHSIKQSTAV
Method: as §1

[1] = for Average purity loss per week: 8 mM sodium phosphate buffer pH 7.4, 0.7-1.1 mM, 37° C., 0-4 weeks, UPLC
From the text: The purpose of the study was to evaluate the chemical stability of a liquid pharmaceutical formulation comprising test compound. The chemical stability was be determined by measuring test compound purity loss (i.e. reduction of test compound relative to other species in the sample) over time using ultra-performance liquid chromatography (UPLC) coupled to an ultra-violet detector operated in reversed-phase mode.
Equipment and analysis conditions: Acquity UPLC I-Class instrument (Waters, Milford, US) together with either an Acquity UPLC CSH Fluorophenyl column (PN. 186005353 from Waters, Milford, US) or an Acquity Premier CSH column (PN. 186009462 from Waters, Milford, US), both having the dimensions 150 × 2.1 mm, particle diameter 1.7 µm and kept at 30° C., was used for the test. Mobile phase A was 0.1% vol/vol trifluoroacetic acid in water and mobile phase B was 0.09% vol/vol trifluoroacetic acid in acetonitrile. The flow rate was 0.35 mL/min while elution was done with a linear gradient of 26% to 40% mobile phase B over 50 min for the UPLC Fluorophenyl column and 30% to 50% mobile phase B over 50 min for the Premier CSH column. Detection was performed at UV 214 nm with 2 µL of volume injected from each sample.
Samples were kept in glass vials for quiescent storage in a 37° C. incubation chamber and subjected to analysis after 0, 1, 2, 3 and 4 weeks. Samples were analysed using UPLC (as described above) with chromatogram peak area as a measure of test compound concentration. Purity was determined at each timepoint as the fraction, given in %, of test compound relative to other species present in the sample. The purity loss over time is the relative difference in % test compound between timepoints and it is reported in Table 7 as the average from the five timepoints.

[2] = Physical stability of liquid formulation (visible particles, turbidity); type: physicochemical; settings: 8 mM sodium phosphate; for Particle formation onset: pH 7.4, 31-37 mg/mL (Compound 7: 21 mg/mL), 37° C., 2 weeks, daily rotation
Method: The purpose of the study was to evaluate the physical stability of a liquid pharmaceutical formulation comprising test compound. The physical stability was determined as the formation of visible particles and the change in turbidity over time.
Test procedures: Test compound was dissolved in 8 mM sodium phosphate, pH 7.4 to a concentration of 31-37 mg/mL in vials (except for Compound 7 which was dissolved to a concentration of 21 mg/mL and Compound 5 which was not soluble at concentrations of ≥20 mg/mL). The vials were incubated at 37° C. for 2 weeks. Every day the vials were rotated end-to-end for 1 minute, 30 rounds. Every second day the vials were placed in front of a black background with strong LED light (Schott light source, KL2500) illuminating from below and a picture for analysis was taken.
Analysis: “Average pixel intensity” is a measure of turbidity of a liquid solution. It was measured by taking the average pixel intensity, ranging from 0 (black) to 255 (white), in a small square of a digital image of the glass vials containing a liquid solution and results are reported in FIG. 1. “Particle density” is a measure of visible particles in a liquid solution. It was measured by counting the number of visible particles in a region of a digital image of the glass vial containing a liquid solution and dividing with the area of the region and the results are reported in FIG. 2.

Row | Molecule | IC50 (Human CRF2 receptor) [nM] | IC50 (Human CRF1 receptor) [nM] | Average purity loss per week [1] | Particle formation onset [2] | also measured
1 | CC[C@H](C)[C@H](NC(=O)[C@H](CCCNC(=N)N)NC(=O)[C@H](C)NC(=O)[C@H](CC(N)=O)NC(=O)[C@@H](NC(=O)[C@@H](NC(=O)[C@H](C)NC(=O)[C@H](CCC(N)=O)NC(=O)[C@H](CCC(=O)O)NC(=O)[C@H](CCCNC(=N)N)NC(=O)[C@H](C)NC(=O)[C@H](C)NC(=O)[C@H](CCCNC(=N)N)NC(=O)[C@H](C)NC(=O)[C@H](CCCNC(=N)N)NC(=O)[C@H](C)NC(=O)[C@H](CCC(N)=O)NC(=O)[C@H](CCC(=O)O)NC(=O)[C@H](CC(C)C)NC(=O)[C@H](CC(C)C)NC(=O)[C@@H](NC(=O)[C@H](CCC(N)=O)NC(=O)[C@H](CC(C)C)NC(=O)[C@H](CC(C)C)NC(=O)CNC(=O)[C@@H](NC(=O)[C@@H]1CCCN1C(=O)[C@@H](NC(=O)[C@H](CC(=O)O)NC(=O)[C@H](CC(C)C)NC(=O)[C@H](CO)NC(=O)[C@H](CC(C)C)NC(=O)[C@@H](NC(=O)[C@@H](NC(=O)[C@@H](N)CCCCNC(=O)COCCOCCNC(=O)COCCOCCNC(=O)CC[C@H](NC(=O)CC[C@H](NC(=O)CC[C@H](NC(=O)CCCCCCCCCCCCCCCCCCC(=O)O)C(=O)O)C(=O)O)C(=O)O)[C@@H](C)CC)C(C)C)C(C)C)[C@@H](C)CC)[C@@H](C)CC)[C@@H](C)O)[C@@H](C)O)C(=O)N[C@@H](CCC(=O)O)C(=O)N[C@@H](C)C(=O)N[C@@H](CCCNC(=N)N)C(=O)N[C@H](C(N)=O)C(C)C [Compound 9] (H-K([AEEA-AEEA-γGlu-γGlu-γGlu-C20 diacid])IVLSLDVPIGLLQILLEQARARAAREQATTNARIEARV-NH2) | 897 | > 1000 |  |  | 
2 | CC[C@H](C)[C@H](NC(=O)[C@H](CCC(=O)O)NC(=O)[C@H](C)NC(=O)[C@H](CC(N)=O)NC(=O)[C@@H](NC(=O)[C@@H](NC(=O)[C@H](C)NC(=O)[C@H](CCC(N)=O)NC(=O)[C@H](CCC(=O)O)NC(=O)[C@H](CCCNC(=N)N)NC(=O)[C@H](C)NC(=O)[C@H](C)NC(=O)[C@H](CCCNC(=N)N)NC(=O)[C@H](C)NC(=O)[C@H](CCCNC(=N)N)NC(=O)[C@H](C)NC(=O)[C@H](CCC(N)=O)NC(=O)[C@H](CCC(=O)O)NC(=O)[C@H](CC(C)C)NC(=O)[C@H](CC(C)C)NC(=O)[C@@H](NC(=O)[C@H](CCC(N)=O)NC(=O)[C@H](CC(C)C)NC(=O)[C@H](CC(C)C)NC(=O)CNC(=O)[C@@H](NC(=O)[C@@H]1CCCN1C(=O)[C@@H](NC(=O)[C@H](CC(=O)O)NC(=O)[C@H](CC(C)C)NC(=O)[C@H](CO)NC(=O)[C@H](CC(C)C)NC(=O)[C@@H](NC(=O)[C@@H](NC(=O)[C@@H](N)CCCCNC(=O)COCCOCCNC(=O)COCCOCCNC(=O)CC[C@H](NC(=O)CC[C@H](NC(=O)CC[C@H](NC(=O)CCCCCCCCCCCCCCCCCCC(=O)O)C(=O)O)C(=O)O)C(=O)O)[C@@H](C)CC)C(C)C)C(C)C)[C@@H](C)CC)[C@@H](C)CC)[C@@H](C)O)[C@@H](C)O)C(=O)N[C@@H](CCC(=O)O)C(=O)N[C@@H](C)C(=O)N[C@@H](CCCNC(=N)N)C(=O)N[C@H](C(N)=O)C(C)C [Compound 10] (H-K([AEEA-AEEA-γGlu-γGlu-γGlu-C20 diacid])IVLSLDVPIGLLQILLEQARARAAREQATTNAEIEARV-NH2) | 569 | > 1000 |  |  | 
3 | CC[C@H](C)[C@H](NC(=O)[C@H](CCC(=O)O)NC(=O)[C@H](C)NC(=O)[C@H](CC(N)=O)NC(=O)[C@@H](NC(=O)[C@@H](NC(=O)[C@H](C)NC(=O)[C@H](CCC(N)=O)NC(=O)[C@H](CCC(=O)O)NC(=O)[C@H](CCCNC(=N)N)NC(=O)[C@H](C)NC(=O)[C@H](C)NC(=O)[C@H](CCCNC(=N)N)NC(=O)[C@H](C)NC(=O)[C@H](CCCNC(=N)N)NC(=O)[C@H](C)NC(=O)[C@H](CCC(N)=O)NC(=O)[C@H](CCC(=O)O)NC(=O)[C@H](CC(C)C)NC(=O)[C@H](CC(C)C)NC(=O)[C@@H](NC(=O)[C@H](CCC(N)=O)NC(=O)[C@H](CC(C)C)NC(=O)[C@H](CC(C)C)NC(=O)CNC(=O)[C@@H](NC(=O)[C@@H]1CCCN1C(=O)[C@@H](NC(=O)[C@H](CC(=O)O)NC(=O)[C@H](CC(C)C)NC(=O)[C@H](CO)NC(=O)[C@H](CC(C)C)NC(=O)[C@@H](NC(=O)[C@@H](N)CCCCNC(=O)COCCOCCNC(=O)COCCOCCNC(=O)CC[C@H](NC(=O)CC[C@H](NC(=O)CC[C@H](NC(=O)CCCCCCCCCCCCCCCCCCC(=O)O)C(=O)O)C(=O)O)C(=O)O)C(C)C)C(C)C)[C@@H](C)CC)[C@@H](C)CC)[C@@H](C)O)[C@@H](C)O)C(=O)N[C@@H](CC(C)C)C(=O)N[C@@H](CCC(=O)O)C(=O)N[C@@H](CCCNC(=N)N)C(=O)N[C@H](C(N)=O)C(C)C [Compound 11] (H-K([AEEA-AEEA-γGlu-γGlu-γGlu-C20 diacid])VLSLDVPIGLLQILLEQARARAAREQATTNAEILERV-NH2) | 196 | > 1000 |  |  | 
4 | DNPSLSIDLTFHLLRTLLELARTQSQRERAEQNRIIFDSV-NH2 [Compound 1] | 0.12 |  |  |  | 
5 | N{ε}-[[[(4S)-4-carboxy-4-[[(4S)-4-carboxy-4-[[(4S)-4-carboxy-4-(19-carboxynonadecanoylamino)butanoyl]amino]butanoyl]amino]butanoyl]amino]ethoxy]ethoxy]a cetyl]amino]ethoxy]ethoxy]acetyl]Lys-[Glu33]-hUcn2 [Compound 6] |  |  | 0.90% | 1 days | 
6 | N{ε}-[[[(4S)-4-carboxy-4-[[(4S)-4-carboxy-4-[[(4S)-4-carboxy-4-(19-carboxynonadecanoylamino)butanoyl]amino]butanoyl]amino]butanoyl]amino]ethoxy]ethoxy]a cetyl]amino]ethoxy]ethoxy]acetyl]Lys-[Glu36]-hUcn2 [Compound 7] |  |  | 3.95% | 7 days | 
7 | N{ε}-[[[(4S)-4-carboxy-4-[[(4S)-4-carboxy-4-[[(4S)-4-carboxy-4-(19-carboxynonadecanoylamino)butanoyl]amino]butanoyl]amino]butanoyl]amino]ethoxy]ethoxy]a cetyl]amino]ethoxy]ethoxy]acetyl]Lys-[Glu37]-hUcn2 [Compound 8] |  |  | 2.43% |  | 
8 | N{ε}-[[[(4S)-4-carboxy-4-[[(4S)-4-carboxy-4-[[(4S)-4-carboxy-4-(19-carboxynonadecanoylamino)butanoyl]amino]butanoyl]amino]butanoyl]amino]ethoxy]ethoxy]a cetyl]amino]ethoxy]ethoxy]acetyl]Lys-hUcn2 [Compound 5] |  |  | Not soluble | Not soluble | Solubility (not soluble at concentrations of) ([1]; pH 7.4): < 700 µM; Solubility (not soluble at concentrations of) ([2]; pH 7.4): < 20 mg/mL
